Measured values from publication PMC6679423 (International Journal of Molecular Sciences, 2019).

Key:
Format in all cases: in vitro ADME
human recombinant CYP1A1 = target: T1, human recombinant CYP1A1 (Homo sapiens, UniProt P04798); assay: Vandetanib oxidation by human recombinant CYP1A1 (Supersomes)
T1 construct: purchased Gentest Corp; host or cells: insect cells (baculovirus)
T1 sequence (P04798 1-512): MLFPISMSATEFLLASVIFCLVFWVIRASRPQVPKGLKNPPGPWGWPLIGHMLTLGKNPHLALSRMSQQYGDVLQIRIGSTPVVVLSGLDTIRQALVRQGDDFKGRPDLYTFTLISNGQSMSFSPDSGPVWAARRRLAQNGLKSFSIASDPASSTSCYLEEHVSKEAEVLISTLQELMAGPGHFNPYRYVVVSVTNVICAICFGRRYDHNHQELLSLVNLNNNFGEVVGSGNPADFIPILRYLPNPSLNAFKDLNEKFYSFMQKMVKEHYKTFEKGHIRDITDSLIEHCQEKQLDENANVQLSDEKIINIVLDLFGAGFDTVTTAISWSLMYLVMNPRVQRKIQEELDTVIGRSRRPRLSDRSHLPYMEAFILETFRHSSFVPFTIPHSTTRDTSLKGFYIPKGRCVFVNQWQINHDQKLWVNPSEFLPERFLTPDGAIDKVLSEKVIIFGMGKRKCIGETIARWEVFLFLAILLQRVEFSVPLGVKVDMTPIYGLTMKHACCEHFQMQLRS
Experimental: (§1) Vandetanib was from LC Laboratories (Woburn, MA, USA). Ketoconazole, NADPH, methimazol and other chemicals were all purchased from Sigma-Aldrich (St. Louis, MO, USA). The purity of all chemicals met the standards of American Chemical Society, unless noted otherwise. All animal experiments were conducted in accordance with the Regulations for the Care and Use of Laboratory Animals (311/1997, Ministry of Agriculture, Czech Republic), which follows the Declaration of Helsinki. Male Wistar rats (~125–150 g; AnLab, Czech Republic), male C57BL/6 mice ([…]; CXR Bioscience Ltd., Dundee, UK), and male New Zealand rabbits (2.5–3 kg; AnLab, Czech Republic) were employed as animal models. Animals were placed in cages in temperature- and humidity-controlled rooms, acclimatized for five days and maintained at 22 °C with a 12 h light/dark period. Standardized diet and water were provided ad libitum. Rats, mice and rabbits used to prepare microsomal fraction from untreated animals were sacrificed by cervical dislocation, livers snap-frozen in liquid nitrogen and stored at −80 °C until further processing (see below). For controls, livers of the animals were removed immediately after sacrifice, divided into small pieces (~1 g), snap-frozen in liquid nitrogen, and stored at −80 °C until isolation of microsomal fractions. Pooled microsomes were used for all in vitro experiments in the present study and prepared from 10 livers/group for all animal species following established protocols. Microsomal fractions were stored at −80 °C until analysis. Protein concentrations in the microsomal fractions were assessed using the bicinchoninic acid protein assay with bovine serum albumin as a standard. Male human hepatic microsomes (pooled sample) (sample LOT: 3043885) were from Gentest Corp. (Woburn, MA, USA). Microsomes from livers of twelve human donors were obtained from Gentest Corp. (Woburn, MA, USA) (cat. no. HG43–1, HG103, HG74, HG93, HG24, HG27, HG23, HG32, HK31, HK34, HG03, and HG42). Each human microsomal sample has been characterized for CYP, FMO and protein contents and specific CYP activities by Gentest Corp. We reanalyzed each microsomal preparation for specific CYP, NADPH:CYP reductase (POR) and FMO activities by assays described in the protocols of Gentest Corp. Our data were similar to those reported by Gentest Corp. in their specification sheets. […]

human liver microsomes [1] = assay: Vandetanib metabolite formation by hepatic microsomes of 12 human donors
Experimental: as §1, with “sheets. The content of CYP, specific CYP and FMO activities in each human hepatic microsomes [phenacetin-O-deethylation (CYP1A2), coumarin-7-hydroxylation (CYP2A6), (S)-mephenytoin-N-demethylase (CYP2B6), paclitaxel-6α-hydroxylation (CYP2C8), diclofenac-4’-hydroxylation (CYP2C9), (S)-mephenytoin-4′-hydroxylation (CYP2C19), bufuralol-1’-hydroxylation (CYP2D6), chlorzoxazone-6-hydroxylation (CYP2E1), testosterone-6β-hydroxylation (CYP3A4), lauric acid-12-hydroxylation (CYP4A), methyl-p-tolyl sulfide oxidase (FMO)] are shown in Table 2. Human recombinant enzymes were used in the forms of Supersomes™ and obtained from Gentest Corp. In Supersomes™ microsomal fractions were isolated from insect cells that are transfected with baculovirus constructs containing cDNA of human CYP enzymes (CYP1A1/2, 1B1, 2A6, 2B6, 2C8/9/18/19/, 2D6, 2E1, 3A4). These Supersomes™ also express NADPH:CYP oxidoreductase (POR). However, because they are microsomes (particles of broken endoplasmic reticulum), other enzymes (proteins) of the endoplasmic reticulum membrane (like NADH:cytochrome b5 reductase and cytochrome b5) are also expressed at basal levels in these Supersomes™. We also utilized Supersomes™ which over-expressed cytochrome b5, in a molar ratio of CYP to cytochrome b5 of 1 to 5. In Supersomes™ where cytochrome b5 was not over-expressed (see above) pure cytochrome b5 was added to reach a molar ratio of CYP to cytochrome b5 of 1 to 5. Reconstitution of Supersomes™ with purified cytochrome b5 was performed as described previously.” for “sheets.”

human recombinant CYP3A5 = assay: Vandetanib oxidation by human recombinant CYP3A5 (Supersomes)
Experimental: (§2) Vandetanib was from LC Laboratories (Woburn, MA, USA). Ketoconazole, NADPH, methimazol and other chemicals were all purchased from Sigma-Aldrich (St. Louis, MO, USA). The purity of all chemicals met the standards of American Chemical Society, unless noted otherwise. All animal experiments were conducted in accordance with the Regulations for the Care and Use of Laboratory Animals (311/1997, Ministry of Agriculture, Czech Republic), which follows the Declaration of Helsinki. Male Wistar rats (~125–150 g; AnLab, Czech Republic), male C57BL/6 mice ([…]; CXR Bioscience Ltd., Dundee, UK), and male New Zealand rabbits (2.5–3 kg; AnLab, Czech Republic) were employed as animal models. Animals were placed in cages in temperature- and humidity-controlled rooms, acclimatized for five days and maintained at 22 °C with a 12 h light/dark period. Standardized diet and water were provided ad libitum. Rats, mice and rabbits used to prepare microsomal fraction from untreated animals were sacrificed by cervical dislocation, livers snap-frozen in liquid nitrogen and stored at −80 °C until further processing (see below). […] Protein concentrations in the microsomal fractions were assessed using the bicinchoninic acid protein assay with bovine serum albumin as a standard. […]

human liver microsomes [2] = assay: Vandetanib metabolite formation by hepatic microsomes of 12 human donors; remark: listed apart in the source
human recombinant CYP2C8 = assay: Vandetanib oxidation by human recombinant CYP2C8 (Supersomes)
Experimental: as §2

CYP2D6, 3A5, 1A1 and 2C8 = assay: Contributions of other CYPs to N-desmethylvandetanib formation in human livers; details: with cytochrome b5
Experimental: The contributions of these enzymes were calculated by relative activity factor because the activities of CYPs in Supersomes™ also need to be considered in addition to the relative contents of CYPs in the livers. […] Of CYPs in human liver, CYP3A4 is the major enzyme present in this human organ (~30% of the CYP hepatic complement), followed by CYP2C9 and 1A2 (~15% and ~13%, respectively), while CYP2C19, 2E1 2A6, 2D6, 2C8 and 3A5 are present in human liver at levels that range from ~2.5% to ~8.5% (see Reference for an overview).

[3] = without consideration of cytochrome b5

`COc1cc2c(Nc3ccc(Br)cc3F)ncnc2cc1OCC1CCNCC1` [N-desmethylvandetanib] was tested, and the “effect of cytochrome b5 on N-desmethylvandetanib formation” value (human recombinant CYP1A1; CYP1A1 with vs without cytochrome b5) was “essentially no such effect”, the “contribution of CYP1A1 to N-desmethylvandetanib formation in human liver” value (human recombinant CYP1A1; [3]) was under 0.3% and the “N-desmethylvandetanib (M1) formed” value (human liver microsomes [1]; human hepatic microsomal sample HG03) was 3.639 peak area/(mg protein × min). For the same compound, the “N-desmethylvandetanib (M1) formed” value (human liver microsomes [1]; human hepatic microsomal sample HG24) was 1.698 peak area/(mg protein × min), the “N-desmethylvandetanib (M1) formed” value (human liver microsomes [1]; human hepatic microsomal sample HG32) was 0.870 peak area/(mg protein × min) and the “N-desmethylvandetanib (M1) formed” value (human liver microsomes [1]; human hepatic microsomal sample HG42) was 8.887 peak area/(mg protein × min). For the same compound, the “N-desmethylvandetanib (M1) formed” value (human liver microsomes [1]; human hepatic microsomal sample HG43) was 1.830 peak area/(mg protein × min), the “N-desmethylvandetanib (M1) formed” value (human liver microsomes [1]; human hepatic microsomal sample HG74) was 0.714 peak area/(mg protein × min) and the “N-desmethylvandetanib (M1) formed” value (human liver microsomes [1]; human hepatic microsomal sample HG93) was 0.966 peak area/(mg protein × min). The “N-desmethylvandetanib (M1) formed” value (human liver microsomes [1]; human hepatic microsomal sample HG103) was 1.021 peak area/(mg protein × min), the “N-desmethylvandetanib (M1) formed” value (human liver microsomes [1]; human hepatic microsomal sample HK31) was 4.124 peak area/(mg protein × min) and the “N-desmethylvandetanib (M1) formed” value (human liver microsomes [1]; human hepatic microsomal sample HK34) was 3.193 peak area/(mg protein × min). For the same compound, the “fold increase of N-desmethylvandetanib formation by cytochrome b5” value (human recombinant CYP3A5; CYP3A5 with vs without cytochrome b5) was 7 fold, the “contribution of CYP3A5 to N-desmethylvandetanib formation in human liver” value (human recombinant CYP3A5; [3]) was under 0.3% and the “N-desmethylvandetanib (M1) formed” value (human liver microsomes [2]; human hepatic microsomal sample HK23) was 4.137 peak area/(mg protein × min). For the same compound, the “N-desmethylvandetanib (M1) formed” value (human liver microsomes [2]; human hepatic microsomal sample HK27) was 1.762 peak area/(mg protein × min), the “fold increase of N-desmethylvandetanib formation by cytochrome b5” value (human recombinant CYP2C8; CYP2C8 with vs without cytochrome b5) was 1.6 fold and the “contribution of CYP2C8 to N-desmethylvandetanib formation in human liver” value (human recombinant CYP2C8; [3]) was under 0.3%. The “contribution in total of other human CYPs (CYP2D6, 3A5, 1A1 and 2C8) to N-desmethylvandetanib formation” value (CYP2D6, 3A5, 1A1 and 2C8) was ~ 0.4%.
